Laboratory results from ChEMBL document CHEMBL5465560, “Selectivity Literature for EUbOPEN Chemogenomic Library” (2024).

What was measured:
[1] = target: T1, Inhibitor of nuclear factor kappa-B kinase subunit alpha (Homo sapiens) (UniProt O15111); experiment: Selectivity interaction (Millipore kinase profiler) EUB0000124b CHUK; conditions: at 10 µM
T1 sequence (whole entry): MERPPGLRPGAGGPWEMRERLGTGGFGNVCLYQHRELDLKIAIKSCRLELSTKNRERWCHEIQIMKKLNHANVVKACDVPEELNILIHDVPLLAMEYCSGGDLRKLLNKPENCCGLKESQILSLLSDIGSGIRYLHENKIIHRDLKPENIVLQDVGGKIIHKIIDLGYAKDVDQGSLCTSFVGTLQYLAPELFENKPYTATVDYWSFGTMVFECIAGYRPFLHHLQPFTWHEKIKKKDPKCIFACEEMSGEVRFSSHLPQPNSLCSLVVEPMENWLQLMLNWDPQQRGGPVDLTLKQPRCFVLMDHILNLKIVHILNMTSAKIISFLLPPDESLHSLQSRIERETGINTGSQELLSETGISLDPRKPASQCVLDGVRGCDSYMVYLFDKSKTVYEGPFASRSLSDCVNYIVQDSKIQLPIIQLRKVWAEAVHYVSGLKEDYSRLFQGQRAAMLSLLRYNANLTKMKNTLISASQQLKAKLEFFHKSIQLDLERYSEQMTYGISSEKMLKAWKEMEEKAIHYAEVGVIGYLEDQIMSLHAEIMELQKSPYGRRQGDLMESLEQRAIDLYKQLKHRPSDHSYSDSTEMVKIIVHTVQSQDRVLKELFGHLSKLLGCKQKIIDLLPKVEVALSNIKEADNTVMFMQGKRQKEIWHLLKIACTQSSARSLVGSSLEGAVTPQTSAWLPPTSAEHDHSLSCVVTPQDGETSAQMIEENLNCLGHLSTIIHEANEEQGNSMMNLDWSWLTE

[2] = target: Serine/threonine-protein kinase MARK1 (Homo sapiens) (UniProt Q9P0L2); experiment: Selectivity interaction (Kinase screening (Nanosyn)) EUB0000604a MARK1
[3] = target: Calcium/calmodulin-dependent protein kinase type 1G (Homo sapiens) (UniProt Q96NX5); experiment: Selectivity interaction (Ambit KINOMEscan and KiNATiv profiling in Jurkat cells) EUB0000090b CAMK1G; type: cell-based; conditions: at 1 µM
[4] = target: RAF proto-oncogene serine/threonine-protein kinase (Homo sapiens) (UniProt P04049); experiment: Selectivity interaction (Kinase panel (Invitrogen)) EUB0000639a RAF1; conditions: at 200 nM
[5] = target: Protein-tyrosine kinase 6 (Homo sapiens, UniProt Q13882); experiment: Selectivity interaction (Kinase panel (Z-LYTE Assay)) EUB0001632a PTK6; conditions: at 10 µM
[6] = target: Mitogen-activated protein kinase kinase kinase kinase 1 (Homo sapiens) (UniProt Q92918); conditions: at 10 µM
[7] = target: Mitogen-activated protein kinase 9 (Homo sapiens, UniProt P45984); experiment: Selectivity interaction (ProQinase) EUB0000171b MAPK9
[8] = target: Serine/threonine-protein kinase PAK 3 (Homo sapiens) (UniProt O75914); experiment: Selectivity interaction (KinomeScan (DiscoverX)) EUB0000092b PAK3; conditions: at 10 µM
[9] = target: G protein-coupled receptor kinase 6 (Homo sapiens) (UniProt P43250); experiment: Selectivity interaction (Upstate Kinase Profiler service (Millipore)) EUB0000056c GRK6; conditions: at 1 µM
[10] = target: Tyrosine-protein kinase FRK (Homo sapiens) (UniProt P42685); experiment: Selectivity interaction (KinomeScan (DiscoverX)) EUB0000045b FRK
[11] = target: Macrophage-stimulating protein receptor (Homo sapiens, UniProt Q04912); experiment: Selectivity interaction (KinomeScan (DiscoverX)) EUB0001619a MST1R; conditions: at 1 µM
[12] = target: T2, Serine/threonine-protein kinase D2 (Homo sapiens) (UniProt Q9BZL6); experiment: Selectivity interaction (ActivX KiNativ screen (ex vivo kinase selectivity in human PBMCs)) EUB0001619a PRKD2; type: cell-based; conditions: PBMC, at 1 µM
T2 sequence (whole entry): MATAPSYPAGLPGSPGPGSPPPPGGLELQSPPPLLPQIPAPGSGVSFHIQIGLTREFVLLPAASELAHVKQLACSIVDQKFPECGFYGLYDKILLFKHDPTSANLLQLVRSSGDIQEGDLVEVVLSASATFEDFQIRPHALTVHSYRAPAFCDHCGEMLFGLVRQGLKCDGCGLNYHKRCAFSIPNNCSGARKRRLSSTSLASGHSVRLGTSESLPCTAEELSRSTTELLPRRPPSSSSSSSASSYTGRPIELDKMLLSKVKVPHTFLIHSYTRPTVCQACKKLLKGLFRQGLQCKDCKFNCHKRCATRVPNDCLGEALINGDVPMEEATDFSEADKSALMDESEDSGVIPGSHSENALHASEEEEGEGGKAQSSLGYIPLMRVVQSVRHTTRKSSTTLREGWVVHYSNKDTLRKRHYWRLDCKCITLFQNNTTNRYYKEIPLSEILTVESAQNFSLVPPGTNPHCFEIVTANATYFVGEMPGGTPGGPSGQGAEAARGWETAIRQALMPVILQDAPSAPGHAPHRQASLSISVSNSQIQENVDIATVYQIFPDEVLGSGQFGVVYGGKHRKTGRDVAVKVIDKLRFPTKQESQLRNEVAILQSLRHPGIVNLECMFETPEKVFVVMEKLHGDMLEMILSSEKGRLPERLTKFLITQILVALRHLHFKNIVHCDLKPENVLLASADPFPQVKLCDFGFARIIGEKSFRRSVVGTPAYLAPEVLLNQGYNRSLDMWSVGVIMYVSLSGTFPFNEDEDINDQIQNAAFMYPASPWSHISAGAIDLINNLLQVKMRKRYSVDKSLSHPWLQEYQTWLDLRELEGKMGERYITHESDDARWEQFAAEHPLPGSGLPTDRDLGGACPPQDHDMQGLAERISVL

[13] = target: Serine/threonine-protein kinase WNK1 (Homo sapiens) (UniProt Q9H4A3); experiment: Selectivity interaction (KinomeScan (DiscoverX)) EUB0001619a WNK1; conditions: at 1 µM
[14] = target: Atypical kinase COQ8A, mitochondrial (Homo sapiens, UniProt Q8NI60); experiment: Selectivity interaction (KinomeScan (DiscoverX)) EUB0000618a ADCK3; conditions: at 10 µM
[15] = test system: Epidermal growth factor receptor (Homo sapiens), P00533 [UNDEFINED MUTATION]; experiment: Selectivity interaction (KinomeScan (DiscoverX)) EUB0000607a EGFR; conditions: at 10 µM
Chain of Epidermal growth factor receptor (Homo sapiens), P00533 [UNDEFINED MUTATION] (P00533 whole entry, looked up, change not shown): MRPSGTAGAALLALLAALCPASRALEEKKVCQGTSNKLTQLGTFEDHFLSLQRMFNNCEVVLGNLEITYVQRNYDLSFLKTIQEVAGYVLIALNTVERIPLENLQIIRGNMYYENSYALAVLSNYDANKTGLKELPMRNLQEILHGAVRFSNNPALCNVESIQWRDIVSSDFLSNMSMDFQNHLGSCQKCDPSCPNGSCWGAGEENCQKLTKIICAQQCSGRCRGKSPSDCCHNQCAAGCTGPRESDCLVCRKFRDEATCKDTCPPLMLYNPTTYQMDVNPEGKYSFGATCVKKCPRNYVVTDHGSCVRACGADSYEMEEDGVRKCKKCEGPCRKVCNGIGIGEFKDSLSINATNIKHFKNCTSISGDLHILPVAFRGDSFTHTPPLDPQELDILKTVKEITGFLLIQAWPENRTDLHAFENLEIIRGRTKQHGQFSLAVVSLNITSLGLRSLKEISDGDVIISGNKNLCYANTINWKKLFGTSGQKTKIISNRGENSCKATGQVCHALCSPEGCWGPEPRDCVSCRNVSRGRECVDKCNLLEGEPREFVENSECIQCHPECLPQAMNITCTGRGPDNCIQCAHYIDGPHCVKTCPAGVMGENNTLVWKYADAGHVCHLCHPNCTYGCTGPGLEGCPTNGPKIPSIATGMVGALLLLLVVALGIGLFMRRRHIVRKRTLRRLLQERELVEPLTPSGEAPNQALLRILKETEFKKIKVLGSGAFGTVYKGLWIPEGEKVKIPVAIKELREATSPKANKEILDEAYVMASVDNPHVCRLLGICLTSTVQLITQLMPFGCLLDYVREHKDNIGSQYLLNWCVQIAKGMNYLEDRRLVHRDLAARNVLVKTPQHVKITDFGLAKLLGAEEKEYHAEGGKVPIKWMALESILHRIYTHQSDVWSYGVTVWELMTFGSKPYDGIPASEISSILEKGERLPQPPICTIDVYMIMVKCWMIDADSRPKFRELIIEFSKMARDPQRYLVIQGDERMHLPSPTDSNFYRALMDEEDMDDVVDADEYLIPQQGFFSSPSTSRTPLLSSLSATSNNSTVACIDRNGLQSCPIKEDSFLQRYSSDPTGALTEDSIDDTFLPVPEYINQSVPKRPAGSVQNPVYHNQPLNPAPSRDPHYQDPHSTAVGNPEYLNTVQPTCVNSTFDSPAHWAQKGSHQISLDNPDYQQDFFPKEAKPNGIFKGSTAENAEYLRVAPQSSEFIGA

Chain of Tyrosine-protein kinase FRK (Homo sapiens) (P42685 whole entry): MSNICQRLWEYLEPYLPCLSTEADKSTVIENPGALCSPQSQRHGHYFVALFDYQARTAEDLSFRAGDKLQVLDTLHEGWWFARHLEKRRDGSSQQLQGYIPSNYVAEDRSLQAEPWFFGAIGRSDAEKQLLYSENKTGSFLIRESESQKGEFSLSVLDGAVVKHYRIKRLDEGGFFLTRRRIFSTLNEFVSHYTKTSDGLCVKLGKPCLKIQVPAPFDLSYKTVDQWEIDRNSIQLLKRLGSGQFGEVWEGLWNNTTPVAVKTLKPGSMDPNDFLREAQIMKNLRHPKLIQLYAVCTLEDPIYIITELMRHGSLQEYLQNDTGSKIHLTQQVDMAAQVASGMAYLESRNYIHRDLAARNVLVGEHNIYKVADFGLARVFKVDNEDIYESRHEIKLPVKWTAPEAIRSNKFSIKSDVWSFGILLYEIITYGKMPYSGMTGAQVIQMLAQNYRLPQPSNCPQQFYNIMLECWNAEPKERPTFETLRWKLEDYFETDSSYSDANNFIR
Chain of Mitogen-activated protein kinase 9 (P45984 whole entry, looked up): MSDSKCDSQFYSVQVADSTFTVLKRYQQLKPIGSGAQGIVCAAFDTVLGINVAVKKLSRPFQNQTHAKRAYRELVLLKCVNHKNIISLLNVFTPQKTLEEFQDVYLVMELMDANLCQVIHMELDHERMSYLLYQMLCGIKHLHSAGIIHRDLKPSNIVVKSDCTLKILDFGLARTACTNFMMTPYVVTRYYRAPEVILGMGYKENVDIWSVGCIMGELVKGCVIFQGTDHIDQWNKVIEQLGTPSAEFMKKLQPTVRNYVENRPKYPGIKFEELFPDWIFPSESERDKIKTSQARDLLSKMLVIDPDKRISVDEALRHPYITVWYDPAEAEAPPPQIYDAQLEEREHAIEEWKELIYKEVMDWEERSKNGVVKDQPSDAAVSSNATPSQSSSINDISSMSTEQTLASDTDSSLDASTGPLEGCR
Chain of RAF proto-oncogene serine/threonine-protein kinase (Homo sapiens) (P04049 whole entry): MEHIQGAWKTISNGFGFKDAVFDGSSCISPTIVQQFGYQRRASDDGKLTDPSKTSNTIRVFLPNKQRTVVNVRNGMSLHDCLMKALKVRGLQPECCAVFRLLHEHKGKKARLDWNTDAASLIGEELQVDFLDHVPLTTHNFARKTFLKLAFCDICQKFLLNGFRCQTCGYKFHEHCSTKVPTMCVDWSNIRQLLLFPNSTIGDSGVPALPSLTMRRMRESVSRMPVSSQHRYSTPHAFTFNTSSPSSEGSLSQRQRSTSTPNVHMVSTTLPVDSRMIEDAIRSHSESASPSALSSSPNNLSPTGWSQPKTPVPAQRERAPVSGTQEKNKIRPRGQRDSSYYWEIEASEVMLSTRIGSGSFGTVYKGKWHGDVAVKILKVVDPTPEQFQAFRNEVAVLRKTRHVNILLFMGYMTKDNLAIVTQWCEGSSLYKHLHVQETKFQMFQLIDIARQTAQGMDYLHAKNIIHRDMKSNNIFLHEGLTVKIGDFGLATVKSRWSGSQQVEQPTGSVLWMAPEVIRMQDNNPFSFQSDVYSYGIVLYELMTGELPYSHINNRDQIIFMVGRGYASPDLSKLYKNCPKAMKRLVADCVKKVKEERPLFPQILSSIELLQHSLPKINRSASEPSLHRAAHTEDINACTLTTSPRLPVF
Chain of Protein-tyrosine kinase 6 (Q13882 whole entry, looked up): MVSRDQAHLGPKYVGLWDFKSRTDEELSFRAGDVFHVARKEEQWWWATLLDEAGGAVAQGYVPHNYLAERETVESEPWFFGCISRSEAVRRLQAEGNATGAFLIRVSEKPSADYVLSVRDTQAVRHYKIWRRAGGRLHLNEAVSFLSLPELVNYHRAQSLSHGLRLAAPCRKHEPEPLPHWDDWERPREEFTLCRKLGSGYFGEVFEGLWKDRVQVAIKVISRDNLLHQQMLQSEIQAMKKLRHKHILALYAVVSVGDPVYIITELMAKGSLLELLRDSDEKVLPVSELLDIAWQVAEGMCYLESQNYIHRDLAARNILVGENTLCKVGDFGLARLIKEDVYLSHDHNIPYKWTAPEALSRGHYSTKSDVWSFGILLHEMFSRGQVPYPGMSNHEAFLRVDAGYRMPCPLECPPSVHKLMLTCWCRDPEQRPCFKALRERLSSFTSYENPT
Chain of Atypical kinase COQ8A, mitochondrial (Q8NI60 163-647 limits assumed): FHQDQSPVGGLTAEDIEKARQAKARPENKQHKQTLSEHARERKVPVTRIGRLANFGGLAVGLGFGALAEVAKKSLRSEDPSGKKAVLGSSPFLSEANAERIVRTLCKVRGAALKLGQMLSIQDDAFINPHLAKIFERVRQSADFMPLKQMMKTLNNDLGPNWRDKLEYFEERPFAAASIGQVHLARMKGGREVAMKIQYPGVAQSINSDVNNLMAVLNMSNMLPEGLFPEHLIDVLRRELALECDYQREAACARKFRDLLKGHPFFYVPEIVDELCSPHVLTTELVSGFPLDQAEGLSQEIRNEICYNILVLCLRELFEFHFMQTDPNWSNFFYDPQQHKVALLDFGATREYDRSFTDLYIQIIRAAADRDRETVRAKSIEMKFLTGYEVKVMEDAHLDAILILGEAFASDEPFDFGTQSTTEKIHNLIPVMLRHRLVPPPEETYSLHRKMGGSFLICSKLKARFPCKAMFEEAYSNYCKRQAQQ
Chain of Serine/threonine-protein kinase MARK1 (Homo sapiens) (Q9P0L2 whole entry, looked up): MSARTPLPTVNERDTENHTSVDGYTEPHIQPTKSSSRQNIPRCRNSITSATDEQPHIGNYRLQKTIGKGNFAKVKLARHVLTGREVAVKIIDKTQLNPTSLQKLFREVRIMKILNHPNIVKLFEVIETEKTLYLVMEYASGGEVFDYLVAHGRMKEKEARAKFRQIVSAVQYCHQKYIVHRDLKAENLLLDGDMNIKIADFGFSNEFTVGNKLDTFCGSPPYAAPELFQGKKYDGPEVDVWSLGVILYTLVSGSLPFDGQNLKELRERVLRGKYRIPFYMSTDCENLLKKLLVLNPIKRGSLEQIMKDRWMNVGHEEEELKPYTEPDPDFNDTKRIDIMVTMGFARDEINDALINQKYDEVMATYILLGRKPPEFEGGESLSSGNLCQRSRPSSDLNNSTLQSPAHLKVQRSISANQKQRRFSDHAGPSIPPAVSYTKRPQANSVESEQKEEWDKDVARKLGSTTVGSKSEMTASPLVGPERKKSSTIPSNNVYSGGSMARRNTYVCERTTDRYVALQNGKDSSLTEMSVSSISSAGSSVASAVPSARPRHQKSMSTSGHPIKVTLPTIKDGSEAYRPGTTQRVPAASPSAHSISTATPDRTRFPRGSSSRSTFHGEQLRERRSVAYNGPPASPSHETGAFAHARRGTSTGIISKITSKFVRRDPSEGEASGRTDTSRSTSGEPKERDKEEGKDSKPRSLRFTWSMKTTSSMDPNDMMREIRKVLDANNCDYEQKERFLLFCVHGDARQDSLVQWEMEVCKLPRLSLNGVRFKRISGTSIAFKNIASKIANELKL
Chain of Calcium/calmodulin-dependent protein kinase type 1G (Homo sapiens) (Q96NX5 whole entry): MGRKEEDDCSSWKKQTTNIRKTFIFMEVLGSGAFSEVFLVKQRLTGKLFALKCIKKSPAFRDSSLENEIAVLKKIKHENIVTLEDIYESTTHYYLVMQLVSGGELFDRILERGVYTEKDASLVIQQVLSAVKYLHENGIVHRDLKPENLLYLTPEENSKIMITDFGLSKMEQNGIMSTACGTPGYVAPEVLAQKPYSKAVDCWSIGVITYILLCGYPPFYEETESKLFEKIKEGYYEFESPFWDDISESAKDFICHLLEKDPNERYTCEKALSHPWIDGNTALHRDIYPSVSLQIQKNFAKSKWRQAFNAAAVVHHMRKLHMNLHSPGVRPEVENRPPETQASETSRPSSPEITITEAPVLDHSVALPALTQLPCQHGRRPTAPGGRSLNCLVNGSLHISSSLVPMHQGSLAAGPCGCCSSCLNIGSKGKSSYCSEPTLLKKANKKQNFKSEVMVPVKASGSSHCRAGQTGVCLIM

CC(=O)Nc1cccc(-n2c(=O)n(C3CC3)c(=O)c3c(Nc4ccc(I)cc4F)n(C)c(=O)c(C)c32)c1
% of control [1]: 123%

Cc1cnc(Nc2ccc(F)cc2Cl)nc1-c1c[nH]c(C(=O)N[C@H](CO)c2cccc(Cl)c2)c1
% of inhibition [2]: 12%

CN(C)C/C=C/C(=O)Nc1ccc(C(=O)N2CCCC(Nc3ncc(Cl)c(-c4c[nH]c5ccccc45)n3)C2)cc1 (configuration not stated)
% of control [3]: 81%

CC[C@@H]1[C@H](F)C(=O)N[C@@H]1COc1nccc2cc(C(N)=O)c(OC)cc12 [ZIMLOVISERTIB]
% of inhibition [4]: 15.9%

Cn1cc(-n2cnc3c(NCc4nc5cc(Cl)c(Cl)cc5[nH]4)nc(N4CCOCC4)nc32)cn1
% of control [5]: 9.47%

CCN(CC)CCCCNc1ncc2cc(-c3cc(OC)cc(OC)c3)c(NC(=O)NC(C)(C)C)nc2n1
% of control [6]: 100%

C=CC(=O)Nc1cccc(C(=O)Nc2ccc(Nc3cc(-c4[nH]c(SC)nc4C)ccn3)cc2)c1
% of control ([7]; at 1 µM): 8%
% of control ([7]; at 5 µM): 1%

CCC(=O)N1CCN(c2ccc(-n3c(=O)ccc4cnc5ccc(-c6cnc7ccccc7c6)cc5c43)cc2C(F)(F)F)CC1
% of control [8]: 100%

Cc1ccc(-c2ccc3c(ccc4sc5c(c43)NC[C@@H](C)NC5=O)n2)cn1
% of inhibition [9]: 10%

C=CC(=O)Nc1cc(-n2c(=O)ccc3cnc4ccc(-c5ccc(NS(C)(=O)=O)cc5)cc4c32)ccc1C
% of control ([10]; at 1 µM): 100%
% of control ([10]; at 10 µM): 98%

N#Cc1cccc(-c2c[nH]c3ncnc(N4CCOCC4)c23)c1
% of control [11]: 95%
% of inhibition [12]: 9%
% of control [13]: 100%

O[C@H]1CC[C@H](Nc2ncc3nc(Nc4c(F)cc(F)cc4F)n([C@H]4CCOC4)c3n2)CC1
% of control [14]: 35%

CNC(=O)Nc1ccc(-c2nc(N3CC4CCC(C3)O4)c3cnn(C4CCC5(CC4)OCCO5)c3n2)cc1
% of control [15]: 52%
